From ChEMBL document CHEMBL1201862, “PubChem BioAssay data set” (2004)
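Briefly, cells in 96-well plates were exposed to five compound concentrations for 48 h, and endpoints were estimated by linear interpolation. Here, GI50 denotes the concentration required for 50% inhibition of growth.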 Calls of active or inactive are those of the source. Cut-off read from the data, not from the text of the source: active = GI50 up to about 1.1 µM and inactive = higher.

Key:
Test in all cases: DTP human tumour cell line panel, 48 h
786-0 = tested on: 786-0
BT-549 = tested on: BT-549
COLO 205 = tested on: COLO 205
HCT-15 = tested on: HCT-15
HOP-62 = tested on: HOP-62
HOP-92 = tested on: HOP-92
Hs-578T = tested on: Hs-578T
NCI-H23 = tested on: NCI-H23
PC-3 = tested on: PC-3
SF-268 = tested on: SF-268
SF-295 = tested on: SF-295
SK-MEL-2 = tested on: SK-MEL-2
SK-MEL-5 = tested on: SK-MEL-5
SN12C = tested on: SN12C
SW-620 = tested on: SW-620
T47D = tested on: T47D
TK-10 = tested on: TK-10
UACC-257 = tested on: UACC-257
UACC-62 = tested on: UACC-62

| Structure (SMILES) | GI50 (786-0) | GI50 (BT-549) | GI50 (COLO 205) | GI50 (HCT-15) [µM] | GI50 (HOP-62) | GI50 (HOP-92) | GI50 (Hs-578T) | GI50 (NCI-H23) | GI50 (PC-3) | GI50 (SF-268) | GI50 (SF-295) | GI50 (SK-MEL-2) | GI50 (SK-MEL-5) | GI50 (SN12C) | GI50 (SW-620) | GI50 (T47D) | GI50 (TK-10) | GI50 (UACC-257) | GI50 (UACC-62) |
| --- | --- | --- | --- | --- | --- | --- | --- | --- | --- | --- | --- | --- | --- | --- | --- | --- | --- | --- | --- |
| c1cnc(N2CCN(Cc3c[nH]c4ccccc34)CC2)nc1 | 14.3 µM (inactive) | 42.1 µM (inactive) | 25.4 µM (inactive) | 72.9 | 56.1 µM (inactive) | > 100 µM (inactive) | > 100 µM (inactive) | 93.5 µM (inactive) | 23.5 µM (inactive) | 74.5 µM (inactive) | 38.3 µM (inactive) | 13.3 µM (inactive) | 36.2 µM (inactive) | 42.1 µM (inactive) | > 100 µM (inactive) | 22.6 µM (inactive) | 22.9 µM (inactive) | 28.8 µM (inactive) | 45.4 µM (inactive) |
| CC(CCC(=O)O)(c1cc(Br)c(O)c(Br)c1)c1cc(Br)c(O)c(Br)c1 | > 100 µM (inactive) | 38.4 µM (inactive) | > 100 µM (inactive) | 54.3 | 96.2 µM (inactive) | > 100 µM (inactive) | > 100 µM (inactive) | 47.4 µM (inactive) | 54.7 µM (inactive) | 59.7 µM (inactive) | 98.4 µM (inactive) | 52.4 µM (inactive) | 29.4 µM (inactive) | > 100 µM (inactive) | 84.3 µM (inactive) | 29.9 µM (inactive) | > 100 µM (inactive) | 76 µM (inactive) | 41 µM (inactive) |
| C=CCCCC1(C)CCNC1=S (stereo not given) | > 100 µM (inactive) | > 100 µM (inactive) | > 100 µM (inactive) | > 100 | > 100 µM (inactive) | > 100 µM (inactive) | > 100 µM (inactive) | > 100 µM (inactive) | > 100 µM (inactive) | > 100 µM (inactive) | > 100 µM (inactive) | > 100 µM (inactive) | > 100 µM (inactive) | > 100 µM (inactive) | > 100 µM (inactive) | > 100 µM (inactive) | > 100 µM (inactive) | > 100 µM (inactive) | > 100 µM (inactive) |
| CCCCCCCC/C=C\CCCCCCCCNc1ccn(C2OC(COP(=O)(O)OC3CC(n4cc(F)c(=O)[nH]c4=O)OC3CO)C(O)C2O)c(=O)n1 (stereo not given) | 0.195 µM (active) | 20.9 µM (inactive) | > 47.3 µM (inactive) | 2.48 | < 0.0255 µM (active) | 7.93 µM (inactive) | > 100 µM (inactive) | 0.433 µM (active) | 28.7 µM (inactive) | < 0.0292 µM (active) | 0.638 µM (active) | > 100 µM (inactive) | 10.4 µM (inactive) | > 100 µM (inactive) | > 41.3 µM (inactive) | 36.3 µM (inactive) | > 100 µM (inactive) | > 37.7 µM (inactive) | 0.223 µM (active) |
| c1ccc(C2=NN(c3nc4ccccc4s3)C3(CCCCC3)N2)nc1 | 18.3 µM (inactive) | 20.5 µM (inactive) | 19.3 µM (inactive) | 32.8 | 28.9 µM (inactive) | 31.7 µM (inactive) | 31.7 µM (inactive) | 24.9 µM (inactive) | 15.8 µM (inactive) | 59.2 µM (inactive) | 27.8 µM (inactive) | 18.4 µM (inactive) | 20.1 µM (inactive) | 19.7 µM (inactive) | 30.7 µM (inactive) | 7.64 µM (inactive) | 21.8 µM (inactive) | 16.7 µM (inactive) | 30.7 µM (inactive) |
| Cc1ccc(S(=O)(=O)NC(=O)NC(Cc2ccccc2)C(=O)O)cc1 (stereo not given) | > 100 µM (inactive) | > 100 µM (inactive) | > 100 µM (inactive) | > 100 | > 100 µM (inactive) | > 100 µM (inactive) | > 100 µM (inactive) | > 100 µM (inactive) | > 100 µM (inactive) | > 100 µM (inactive) | > 100 µM (inactive) | > 100 µM (inactive) | > 100 µM (inactive) | > 100 µM (inactive) | > 100 µM (inactive) | > 100 µM (inactive) | > 100 µM (inactive) | > 100 µM (inactive) | > 100 µM (inactive) |
| O=C1CSC(c2ccccc2)N1c1ccc(-c2ccc(-n3c(-c4ccccc4)nc4ccccc4c3=O)cc2)cc1 (stereo not given) | 55 µM (inactive) | 43.3 µM (inactive) | 38.2 µM (inactive) | 29.2 | > 100 µM (inactive) | > 100 µM (inactive) | > 100 µM (inactive) | 57.1 µM (inactive) | 37.9 µM (inactive) | 49.4 µM (inactive) | 64.3 µM (inactive) | 25.5 µM (inactive) | 25.2 µM (inactive) | > 100 µM (inactive) | 97.7 µM (inactive) | 25 µM (inactive) | 57.9 µM (inactive) | > 100 µM (inactive) | 34.6 µM (inactive) |
| COc1ccc(/C=C2\N=C3N(Cc4ccccc4)C=C(N)N3C2=O)cc1 | 52.7 µM (inactive) | 32.9 µM (inactive) | > 100 µM (inactive) | > 100 | 39.3 µM (inactive) | 58.7 µM (inactive) | 28.8 µM (inactive) | > 100 µM (inactive) | > 100 µM (inactive) | > 100 µM (inactive) | 61.2 µM (inactive) | > 100 µM (inactive) | 46.7 µM (inactive) | > 100 µM (inactive) | > 100 µM (inactive) | > 100 µM (inactive) | > 100 µM (inactive) | 30.8 µM (inactive) | > 100 µM (inactive) |
| CCOC(=O)CCC(C(=O)OCC)n1nc2ccc(Nc3c(C)[n+]([O-])c4ccc(Cl)cc4[n+]3[O-])cc2n1 (stereo not given) | 16.5 µM (inactive) | 28.1 µM (inactive) | 32.7 µM (inactive) | 17.6 | 17 µM (inactive) | 20.9 µM (inactive) | 21.4 µM (inactive) | 21.5 µM (inactive) | 26.5 µM (inactive) | 12.2 µM (inactive) | 16.8 µM (inactive) | 20 µM (inactive) | 21.8 µM (inactive) | 18.9 µM (inactive) | 33.7 µM (inactive) | 21.7 µM (inactive) | 28.9 µM (inactive) | 24.5 µM (inactive) | 26.6 µM (inactive) |
| Sc1nn2c(COc3cc(Cl)c(OCc4nnc5sc(S)nn45)cc3Cl)nnc2s1 | 39.5 µM (inactive) | 32.7 µM (inactive) | > 100 µM (inactive) | 33.1 | > 100 µM (inactive) | 38.9 µM (inactive) | > 100 µM (inactive) | > 100 µM (inactive) | > 100 µM (inactive) | 44.6 µM (inactive) | > 100 µM (inactive) | > 100 µM (inactive) | 41.2 µM (inactive) | 41.2 µM (inactive) | 30.3 µM (inactive) | 26 µM (inactive) | > 100 µM (inactive) | > 100 µM (inactive) | 28.6 µM (inactive) |
| CC1=C(C(=O)OCCO[N+](=O)[O-])C(c2ccccc2[N+](=O)[O-])C(C(=O)OC(C)C)=C(C)N1 (stereo not given) | 16.6 µM (inactive) | 16.5 µM (inactive) | 15.1 µM (inactive) | 16.6 | 18.2 µM (inactive) | 14.5 µM (inactive) | 14.8 µM (inactive) | 20.7 µM (inactive) | 8.17 µM (inactive) | 20.4 µM (inactive) | 15.7 µM (inactive) | 15.6 µM (inactive) | 13.9 µM (inactive) | 17.6 µM (inactive) | 19.2 µM (inactive) | 13 µM (inactive) | 21.8 µM (inactive) | 15.3 µM (inactive) | 14.1 µM (inactive) |
| O=c1c2c3c(sc2nc2n1N=CN(c1ccc(Cl)cc1)C2)CCCC3 | 19.3 µM (inactive) | > 100 µM (inactive) | 35.8 µM (inactive) | 19.7 | 50 µM (inactive) | 8.47 µM (inactive) | 3.93 µM (inactive) | > 100 µM (inactive) | 15.1 µM (inactive) | 20.8 µM (inactive) | 70.1 µM (inactive) | 43.2 µM (inactive) | 44.8 µM (inactive) | > 100 µM (inactive) | > 100 µM (inactive) | 2.21 µM (inactive) | > 100 µM (inactive) | 55.7 µM (inactive) | 56.8 µM (inactive) |
| C[C@@H](CC(O)C(O)C(C)(C)O)C1CCC23CC12CCC1[C@@]2(C)CCC(O)C(C)(C)C2CC(OC2OC(CO)C(O)C(O)C2O)[C@]13C (stereo not given in full) | > 10 µM (inactive) | > 10 µM (inactive) | > 10 µM (inactive) | > 10 | > 10 µM (inactive) | > 10 µM (inactive) | > 10 µM (inactive) | > 10 µM (inactive) | > 10 µM (inactive) | > 10 µM (inactive) | > 10 µM (inactive) | > 10 µM (inactive) | > 10 µM (inactive) | > 10 µM (inactive) | > 10 µM (inactive) | > 10 µM (inactive) | > 10 µM (inactive) | > 10 µM (inactive) | > 10 µM (inactive) |
| COC1=C2C=[N+](C)C3C(=C2C=CC1OC)Cc1cc2c(cc13)OCO2 (stereo not given) | 11.9 µM (inactive) | 12.7 µM (inactive) | 5.26 µM (inactive) | 17.7 | 13.9 µM (inactive) | 22.7 µM (inactive) | 13.7 µM (inactive) | 13 µM (inactive) | 16.5 µM (inactive) | 3.8 µM (inactive) | 15.3 µM (inactive) | 15.5 µM (inactive) | 11.2 µM (inactive) | 4.43 µM (inactive) | 26.2 µM (inactive) | 5.02 µM (inactive) | 15.5 µM (inactive) | 11.4 µM (inactive) | 7.6 µM (inactive) |
| CC1(C)N=C(N)N=C(N)N1c1ccc(Cl)cc1 | 0.598 µM (active) | 26.2 µM (inactive) | 7.06 µM (inactive) | 7.11 | 9.02 µM (inactive) | 24.1 µM (inactive) | > 100 µM (inactive) | 3.44 µM (inactive) | 1.88 µM (inactive) | 0.708 µM (active) | 3.33 µM (inactive) | 10 µM (inactive) | 8.11 µM (inactive) | 6.71 µM (inactive) | 1.48 µM (inactive) | 35.1 µM (inactive) | 48.8 µM (inactive) | 26.5 µM (inactive) | 4.84 µM (inactive) |
